Assay results as given in ChEMBL document CHEMBL1201862, “PubChem BioAssay data set” (2004).
Blank lines part the entries; values can stand above or below the compound they belong to. The source made the active and inactive calls.

Assays:
[1] = molecular target: Protein disulfide-isomerase (Homo sapiens, UniProt P07237); assay: PDI inhibitors, insulin aggregation turbidity, dose response, biochemical, absorbance, cherry-picked samples (AID 602350); assay type: functional
[2] = molecular target: Intestinal-type alkaline phosphatase (Mus musculus, UniProt P24822); assay: PubChem AID 488785; assay type: functional
[3] = molecular target: Dual specificity tyrosine-phosphorylation-regulated kinase 1A (Rattus norvegicus, UniProt Q63470); assay type: biochemical, Homo sapiens
[4] = molecular target: T1, Alkaline phosphatase, tissue-nonspecific isozyme (Homo sapiens, UniProt P05186); assay: TNAP enzyme inhibition by screening hits, dose response, selectivity assay for mouse IAP inhibitor project, biochemical, human TNAP, uHTS hits (AID 488906); assay type: functional
T1 sequence (P05186 whole entry): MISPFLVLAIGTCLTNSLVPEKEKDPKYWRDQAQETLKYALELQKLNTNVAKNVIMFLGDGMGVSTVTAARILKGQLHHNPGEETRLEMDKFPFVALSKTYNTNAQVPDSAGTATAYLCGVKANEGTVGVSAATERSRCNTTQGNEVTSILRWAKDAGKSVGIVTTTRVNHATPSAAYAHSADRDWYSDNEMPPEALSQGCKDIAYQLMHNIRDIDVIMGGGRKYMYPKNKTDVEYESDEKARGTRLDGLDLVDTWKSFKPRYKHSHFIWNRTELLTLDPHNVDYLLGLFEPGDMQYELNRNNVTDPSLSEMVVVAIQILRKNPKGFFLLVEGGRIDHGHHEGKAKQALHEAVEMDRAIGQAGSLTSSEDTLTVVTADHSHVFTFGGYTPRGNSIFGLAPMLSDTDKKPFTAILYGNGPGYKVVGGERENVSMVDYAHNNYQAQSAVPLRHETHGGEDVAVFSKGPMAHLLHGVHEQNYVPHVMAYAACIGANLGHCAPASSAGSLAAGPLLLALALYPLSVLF

[5] = molecular target: Intestinal-type alkaline phosphatase (Homo sapiens, UniProt P09923); assay: activation of human intestinal alkaline phosphatase – biochemical, dose response (AID 488873); assay type: functional
Protein Wnt-3a = Protein Wnt-3a (Mus musculus, UniProt P27467); assay: Wnt3a-driven reporter signaling inhibition, dose response, selectivity assay for Gli-SUFU antagonist project, Wnt-LIGHT cells, luminescence (AID 651570); assay type: functional; settings: read-out: IC50_Mean;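 further: Wnt-LIGHT reporter cells stimulated with conditioned medium from Wnt3a-producing cells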
[6] = inhibitors of intracellular T. cruzi replication, confirmation, NIH3T3 host cells, beta-gal luminescence (AID 2044); assay type: functional, cell-based;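 further: intracellular parasites grown in NIH/3T3 mouse fibroblasts as host cells; luminescent beta-galactosidase reporter signal from transgenic T. cruzi replicating inside host cells; inhibitors lower the luminescence signal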
[7] = cytotoxicity toward NIH3T3 fibroblasts, dose response, counter-screen, cell-based, ATP luminescence, mouse fibroblasts (AID 2010); assay type: functional;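 further: cells exposed to compound for about 90 hours before reading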
[8] = molecular target: Benomyl/methotrexate resistance protein (Candida albicans, UniProt P28873); assay: CaMdr1 efflux pump inhibitor potency, dose response, singleplex, Cherry Pick1 hits (AID 588608); assay type: functional
Melanocortin receptor 4 = Melanocortin receptor 4 (Homo sapiens, UniProt P32245); assay type: functional, cell-based;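 further: Cell-based assay with luminescence read-out, confirmatory dose-response testing for agonist activity of biased ligands at MC4R; human U2OS cells with tagged receptor and beta-arrestin; potency of agonists that increase receptor coupling to beta-arrestin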
[9] = ARNT/TACC3 interaction disruptors, potency, confirmation, biochemical, AlphaScreen, cherry-picked samples (AID 651703); assay type: functional, Homo sapiens;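 further: His-tagged ARNT PAS-B domain paired with GST-TACC3 E629A dimer coactivator fragment; potency of inhibitors that break up the complex and lower AlphaScreen signal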
[10] = molecular target: Alkaline phosphatase, placental type (Homo sapiens, UniProt P05187); assay: PLAP enzyme inhibitors, confirmation, biochemical, luminescence (AID 1512); assay type: functional
[11] = molecular target: T2, Sentrin-specific protease 8 (Homo sapiens, UniProt Q96LD8); assay: SENP8 protease inhibitors, SAR follow-up, biochemical, luminescence (AID 504501); assay type: functional
T2 sequence (Q96LD8 whole entry): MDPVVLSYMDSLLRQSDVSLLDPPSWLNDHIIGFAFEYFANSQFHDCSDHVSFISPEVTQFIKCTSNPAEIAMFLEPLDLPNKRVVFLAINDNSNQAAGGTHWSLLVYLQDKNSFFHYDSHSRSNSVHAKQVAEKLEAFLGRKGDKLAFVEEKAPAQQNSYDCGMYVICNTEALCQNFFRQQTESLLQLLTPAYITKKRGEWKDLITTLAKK

[12] = molecular target: T3, Sentrin-specific protease 7 (Homo sapiens, UniProt Q9BQF6); assay: SENP7 protease inhibitors, SAR follow-up, biochemical, luminescence (AID 504497); assay type: functional
T3 sequence (Q9BQF6 whole entry): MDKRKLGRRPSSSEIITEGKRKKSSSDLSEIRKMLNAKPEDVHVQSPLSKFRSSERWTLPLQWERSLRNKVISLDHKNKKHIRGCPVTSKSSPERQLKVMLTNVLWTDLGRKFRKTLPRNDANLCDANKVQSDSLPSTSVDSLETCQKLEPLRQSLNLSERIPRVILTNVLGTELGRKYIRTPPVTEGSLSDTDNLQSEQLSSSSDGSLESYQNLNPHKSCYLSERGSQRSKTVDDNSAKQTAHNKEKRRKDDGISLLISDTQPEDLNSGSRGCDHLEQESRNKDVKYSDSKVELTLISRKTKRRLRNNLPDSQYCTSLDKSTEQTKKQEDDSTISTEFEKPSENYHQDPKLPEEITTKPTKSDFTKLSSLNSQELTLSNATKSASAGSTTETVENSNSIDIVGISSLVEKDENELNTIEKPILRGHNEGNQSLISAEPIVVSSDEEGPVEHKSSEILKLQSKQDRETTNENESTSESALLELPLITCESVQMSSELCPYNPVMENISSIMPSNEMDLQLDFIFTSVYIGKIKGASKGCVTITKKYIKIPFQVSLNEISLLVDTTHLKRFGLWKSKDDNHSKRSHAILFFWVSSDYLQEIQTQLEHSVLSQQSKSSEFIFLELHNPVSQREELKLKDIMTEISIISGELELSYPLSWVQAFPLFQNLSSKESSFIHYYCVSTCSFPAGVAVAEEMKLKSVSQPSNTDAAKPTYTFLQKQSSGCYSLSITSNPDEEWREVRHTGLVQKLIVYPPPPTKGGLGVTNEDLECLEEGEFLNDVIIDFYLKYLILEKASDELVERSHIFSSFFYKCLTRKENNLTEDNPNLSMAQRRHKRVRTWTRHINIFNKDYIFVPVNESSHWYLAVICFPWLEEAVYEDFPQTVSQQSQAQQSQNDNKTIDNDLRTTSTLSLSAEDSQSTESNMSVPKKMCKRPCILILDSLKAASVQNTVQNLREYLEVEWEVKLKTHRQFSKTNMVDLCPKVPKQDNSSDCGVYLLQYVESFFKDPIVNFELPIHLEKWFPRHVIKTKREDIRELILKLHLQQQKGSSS

[13] = molecular target: T4, Sentrin-specific protease 6 (Homo sapiens, UniProt Q9GZR1); assay: SAR Analysis of small molecule inhibitors of Sentrin-specific protease 6 (SENP6) using a Luminescent assay. [Related pubchem assays (depositor defined):AID2582, AID2599]; assay type: functional
T4 sequence (Q9GZR1 whole entry): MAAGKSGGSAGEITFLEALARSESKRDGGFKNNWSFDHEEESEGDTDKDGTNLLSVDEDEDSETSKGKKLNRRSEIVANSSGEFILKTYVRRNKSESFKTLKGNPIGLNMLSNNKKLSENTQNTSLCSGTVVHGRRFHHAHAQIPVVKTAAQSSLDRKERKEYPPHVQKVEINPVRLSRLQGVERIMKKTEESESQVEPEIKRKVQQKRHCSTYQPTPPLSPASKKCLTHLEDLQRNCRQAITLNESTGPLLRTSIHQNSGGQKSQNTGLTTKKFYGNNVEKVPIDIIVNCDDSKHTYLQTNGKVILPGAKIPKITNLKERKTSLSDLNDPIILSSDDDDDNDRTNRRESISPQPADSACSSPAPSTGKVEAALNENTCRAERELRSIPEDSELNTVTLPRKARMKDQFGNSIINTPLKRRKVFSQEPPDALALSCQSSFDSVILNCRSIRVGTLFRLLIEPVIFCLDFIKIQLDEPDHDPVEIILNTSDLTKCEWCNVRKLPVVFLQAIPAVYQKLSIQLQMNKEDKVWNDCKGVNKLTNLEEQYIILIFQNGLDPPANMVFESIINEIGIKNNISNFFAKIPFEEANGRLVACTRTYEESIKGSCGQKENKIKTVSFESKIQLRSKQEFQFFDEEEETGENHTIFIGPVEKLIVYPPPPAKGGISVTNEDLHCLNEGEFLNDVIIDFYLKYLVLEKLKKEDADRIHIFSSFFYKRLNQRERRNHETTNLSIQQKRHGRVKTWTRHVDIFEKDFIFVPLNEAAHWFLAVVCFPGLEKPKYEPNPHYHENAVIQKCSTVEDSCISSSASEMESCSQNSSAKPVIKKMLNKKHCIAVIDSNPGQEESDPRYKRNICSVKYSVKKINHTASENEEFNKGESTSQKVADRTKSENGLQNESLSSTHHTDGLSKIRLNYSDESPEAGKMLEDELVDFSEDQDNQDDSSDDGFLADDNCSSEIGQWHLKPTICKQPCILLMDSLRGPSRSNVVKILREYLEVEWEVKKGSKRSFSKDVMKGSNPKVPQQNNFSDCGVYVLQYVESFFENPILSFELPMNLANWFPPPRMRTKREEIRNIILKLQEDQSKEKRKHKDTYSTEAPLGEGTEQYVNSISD

Caspase-3 = molecular target: T5, Caspase-3 (Homo sapiens, UniProt P42574); assay: SAR Analysis of small molecule inhibitors of Sentrin-specific proteases (SENPs) using a Caspase-3 Selectivity assay. [Related pubchem assays (depositor defined):AID2540, AID2599, AID434973, AID489001]; assay type: functional
T5 sequence (P42574 whole entry): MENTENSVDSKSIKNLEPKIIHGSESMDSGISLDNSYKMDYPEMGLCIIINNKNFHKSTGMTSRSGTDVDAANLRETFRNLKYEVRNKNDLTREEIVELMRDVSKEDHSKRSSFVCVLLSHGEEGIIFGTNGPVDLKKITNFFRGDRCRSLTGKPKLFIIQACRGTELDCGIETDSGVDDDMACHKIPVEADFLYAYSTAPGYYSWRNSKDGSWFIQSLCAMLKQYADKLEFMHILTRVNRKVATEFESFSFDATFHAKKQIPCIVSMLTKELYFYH

[14] = molecular target: Neuropeptides B/W receptor type 1 (Homo sapiens, UniProt P48145); assay: GPR7 antagonist potency, late-stage follow-up, cell-based, fluorescence, dose response, set 6 (AID 588583); assay type: functional
[15] = molecular target: Melanin-concentrating hormone receptor 1 (Homo sapiens, UniProt Q99705); assay: Late-stage fluorescence-based counterscreen for antagonists of the G-protein coupled receptor 7 (GPR7): cell-based dose response assay to identify antagonists of the melanin-concentrating hormone receptor 1 (MCHR1) Set 6.; assay type: functional
[16] = molecular target: Hepatocyte nuclear factor 4-alpha (Homo sapiens, UniProt P41235); assay type: functional, cell-based;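 further: biochemical luminescence-based dose-response counterscreen measuring inhibition of HNF4 dimerization, run alongside a screen for blockers of ABHD5–perilipin-5 interaction; split luciferase complementation of HNF4 fusion proteins in cell lysate measuring dimerization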
[17] = molecular target: T6, Heat shock factor protein 1 (Mus musculus, UniProt P38532); assay: inhibition of MG132-induced HSE-luciferase signal, confirmation, cell-based, NIH3T3, luminescence, dose retest (AID 2382); assay type: functional;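 further: NIH3T3 fibroblasts with HSF1-driven luciferase reporter stressed by proteasome inhibitor MG132; luminescence from HSF1-driven luciferase expression after 8 hours of MG132 stress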
T6 sequence (P38532 whole entry): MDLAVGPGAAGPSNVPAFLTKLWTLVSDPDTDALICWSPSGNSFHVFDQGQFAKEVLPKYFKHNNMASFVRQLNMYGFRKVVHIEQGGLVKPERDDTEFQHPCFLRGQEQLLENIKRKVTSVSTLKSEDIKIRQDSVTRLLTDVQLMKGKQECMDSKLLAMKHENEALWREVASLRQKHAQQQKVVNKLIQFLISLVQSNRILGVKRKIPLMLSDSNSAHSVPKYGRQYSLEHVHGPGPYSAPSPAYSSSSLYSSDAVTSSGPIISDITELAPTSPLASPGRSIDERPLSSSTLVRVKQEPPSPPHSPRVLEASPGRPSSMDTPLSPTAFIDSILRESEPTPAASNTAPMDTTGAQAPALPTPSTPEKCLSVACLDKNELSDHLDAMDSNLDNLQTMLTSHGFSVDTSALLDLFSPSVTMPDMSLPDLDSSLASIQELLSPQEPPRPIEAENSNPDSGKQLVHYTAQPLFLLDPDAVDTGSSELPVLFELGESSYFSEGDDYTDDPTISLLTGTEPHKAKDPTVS

[18] = molecular target: Mitochondrial peptide methionine sulfoxide reductase (Bos taurus, UniProt P54149); assay type: functional;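 further: absorbance read-out, biochemical high-throughput dose-response screen for MsrA inhibitors, confirmatory; recombinant bovine MsrA coupled to E. coli TrxB with NADPH and selenocystamine; potency is for inhibitors of MsrA activity on DMSO substrate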
Sequence of Mitochondrial peptide methionine sulfoxide reductase (P54149 whole entry): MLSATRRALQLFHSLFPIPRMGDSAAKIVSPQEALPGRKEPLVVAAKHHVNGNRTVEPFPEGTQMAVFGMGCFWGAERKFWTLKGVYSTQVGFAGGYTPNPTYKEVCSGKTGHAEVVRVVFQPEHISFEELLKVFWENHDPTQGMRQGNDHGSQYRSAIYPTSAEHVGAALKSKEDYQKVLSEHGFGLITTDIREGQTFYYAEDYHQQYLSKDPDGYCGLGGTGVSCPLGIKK

Sequence of Melanin-concentrating hormone receptor 1 (Q99705 whole entry, the tested form may be a part): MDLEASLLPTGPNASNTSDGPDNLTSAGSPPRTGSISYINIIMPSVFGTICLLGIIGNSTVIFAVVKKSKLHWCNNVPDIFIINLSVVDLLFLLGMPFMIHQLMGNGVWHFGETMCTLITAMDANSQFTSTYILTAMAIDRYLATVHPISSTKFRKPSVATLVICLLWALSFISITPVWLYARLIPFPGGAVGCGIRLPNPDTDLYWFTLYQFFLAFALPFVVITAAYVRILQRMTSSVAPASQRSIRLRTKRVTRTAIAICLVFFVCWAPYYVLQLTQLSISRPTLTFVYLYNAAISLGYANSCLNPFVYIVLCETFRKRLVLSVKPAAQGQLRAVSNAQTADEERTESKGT
Sequence of Alkaline phosphatase, placental type (P05187 whole entry): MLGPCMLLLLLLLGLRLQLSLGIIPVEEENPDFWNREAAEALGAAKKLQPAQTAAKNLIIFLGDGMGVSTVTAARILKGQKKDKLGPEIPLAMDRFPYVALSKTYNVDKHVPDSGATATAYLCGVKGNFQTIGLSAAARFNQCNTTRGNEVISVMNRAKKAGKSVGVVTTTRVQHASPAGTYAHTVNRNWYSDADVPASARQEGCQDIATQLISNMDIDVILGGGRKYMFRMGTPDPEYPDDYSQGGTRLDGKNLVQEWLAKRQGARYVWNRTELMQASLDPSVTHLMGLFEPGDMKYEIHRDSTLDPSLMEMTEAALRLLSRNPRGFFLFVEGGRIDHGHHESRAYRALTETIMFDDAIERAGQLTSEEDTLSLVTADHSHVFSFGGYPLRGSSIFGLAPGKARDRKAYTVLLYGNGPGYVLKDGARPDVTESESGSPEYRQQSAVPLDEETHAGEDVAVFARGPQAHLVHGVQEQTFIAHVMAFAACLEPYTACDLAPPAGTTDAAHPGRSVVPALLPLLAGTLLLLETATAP
Sequence of Neuropeptides B/W receptor type 1 (P48145 whole entry): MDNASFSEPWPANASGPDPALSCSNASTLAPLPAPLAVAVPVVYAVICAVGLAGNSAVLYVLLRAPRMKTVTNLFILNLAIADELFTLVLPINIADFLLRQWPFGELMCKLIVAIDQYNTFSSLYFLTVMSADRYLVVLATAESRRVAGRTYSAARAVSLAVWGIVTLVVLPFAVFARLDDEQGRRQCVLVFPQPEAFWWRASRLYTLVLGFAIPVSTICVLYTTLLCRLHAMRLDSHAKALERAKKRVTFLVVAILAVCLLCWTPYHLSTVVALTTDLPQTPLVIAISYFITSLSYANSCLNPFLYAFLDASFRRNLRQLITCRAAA
Sequence of Protein disulfide-isomerase (P07237 whole entry): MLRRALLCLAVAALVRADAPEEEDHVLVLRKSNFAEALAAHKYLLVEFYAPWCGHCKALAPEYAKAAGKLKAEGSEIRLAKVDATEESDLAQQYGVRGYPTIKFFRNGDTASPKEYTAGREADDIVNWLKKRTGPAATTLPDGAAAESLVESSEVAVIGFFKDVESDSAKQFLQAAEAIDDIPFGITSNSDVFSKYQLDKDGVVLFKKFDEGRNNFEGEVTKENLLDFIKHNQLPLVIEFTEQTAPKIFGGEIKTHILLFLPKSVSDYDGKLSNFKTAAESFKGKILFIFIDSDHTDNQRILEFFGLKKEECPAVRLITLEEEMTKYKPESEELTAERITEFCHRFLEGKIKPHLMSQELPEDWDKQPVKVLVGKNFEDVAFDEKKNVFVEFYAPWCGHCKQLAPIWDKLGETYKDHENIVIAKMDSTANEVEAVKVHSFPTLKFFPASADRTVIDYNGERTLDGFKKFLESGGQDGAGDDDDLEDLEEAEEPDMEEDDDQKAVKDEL
Sequence of Hepatocyte nuclear factor 4-alpha (P41235 whole entry, the tested form may be a part): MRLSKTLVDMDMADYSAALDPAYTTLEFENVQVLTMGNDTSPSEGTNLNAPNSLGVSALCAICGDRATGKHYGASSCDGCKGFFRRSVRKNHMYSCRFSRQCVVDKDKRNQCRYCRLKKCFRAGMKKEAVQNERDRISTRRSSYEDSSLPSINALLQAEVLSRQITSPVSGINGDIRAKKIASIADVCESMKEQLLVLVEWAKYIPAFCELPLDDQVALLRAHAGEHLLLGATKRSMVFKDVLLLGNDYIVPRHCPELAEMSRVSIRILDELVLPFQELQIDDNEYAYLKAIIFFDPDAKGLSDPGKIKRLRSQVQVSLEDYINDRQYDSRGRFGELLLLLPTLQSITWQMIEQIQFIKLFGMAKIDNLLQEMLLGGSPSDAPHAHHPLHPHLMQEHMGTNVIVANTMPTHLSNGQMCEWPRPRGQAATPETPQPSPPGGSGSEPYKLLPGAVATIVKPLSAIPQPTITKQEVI
Sequence of Melanocortin receptor 4 (P32245 whole entry, the tested form may be a part): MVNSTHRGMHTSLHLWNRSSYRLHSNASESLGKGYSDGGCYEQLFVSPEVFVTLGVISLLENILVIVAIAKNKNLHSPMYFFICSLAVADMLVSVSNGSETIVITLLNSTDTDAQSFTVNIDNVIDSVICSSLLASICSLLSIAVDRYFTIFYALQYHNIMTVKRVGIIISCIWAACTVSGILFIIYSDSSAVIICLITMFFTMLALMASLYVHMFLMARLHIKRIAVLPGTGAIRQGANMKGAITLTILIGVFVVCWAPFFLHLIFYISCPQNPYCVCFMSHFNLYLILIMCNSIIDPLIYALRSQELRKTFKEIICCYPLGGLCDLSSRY
Sequence of Intestinal-type alkaline phosphatase (Homo sapiens, UniProt P09923) (P09923 whole entry): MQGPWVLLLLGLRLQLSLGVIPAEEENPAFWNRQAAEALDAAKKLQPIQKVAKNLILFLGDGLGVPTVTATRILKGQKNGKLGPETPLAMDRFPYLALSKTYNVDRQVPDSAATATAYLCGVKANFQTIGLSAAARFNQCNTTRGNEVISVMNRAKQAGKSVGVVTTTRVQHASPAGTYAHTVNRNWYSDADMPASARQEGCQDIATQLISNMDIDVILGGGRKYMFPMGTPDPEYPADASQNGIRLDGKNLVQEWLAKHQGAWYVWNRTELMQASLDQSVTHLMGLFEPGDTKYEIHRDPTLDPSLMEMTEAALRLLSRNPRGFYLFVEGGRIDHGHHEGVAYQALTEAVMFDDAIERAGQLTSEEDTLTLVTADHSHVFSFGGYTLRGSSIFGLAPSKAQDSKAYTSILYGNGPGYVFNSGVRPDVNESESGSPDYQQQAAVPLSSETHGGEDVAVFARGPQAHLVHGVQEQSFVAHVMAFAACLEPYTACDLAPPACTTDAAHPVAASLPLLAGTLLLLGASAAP
Sequence of Protein Wnt-3a (P27467 whole entry): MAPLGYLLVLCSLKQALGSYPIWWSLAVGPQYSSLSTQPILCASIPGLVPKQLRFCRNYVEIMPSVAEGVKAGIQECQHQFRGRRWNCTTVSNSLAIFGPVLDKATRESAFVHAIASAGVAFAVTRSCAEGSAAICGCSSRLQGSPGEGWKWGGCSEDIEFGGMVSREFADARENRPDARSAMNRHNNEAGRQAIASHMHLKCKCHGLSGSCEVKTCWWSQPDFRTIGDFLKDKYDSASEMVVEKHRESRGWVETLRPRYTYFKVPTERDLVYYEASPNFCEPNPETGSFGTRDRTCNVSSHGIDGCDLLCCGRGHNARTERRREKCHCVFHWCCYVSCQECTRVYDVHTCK
Sequence of Intestinal-type alkaline phosphatase (Mus musculus, UniProt P24822) (P24822 whole entry): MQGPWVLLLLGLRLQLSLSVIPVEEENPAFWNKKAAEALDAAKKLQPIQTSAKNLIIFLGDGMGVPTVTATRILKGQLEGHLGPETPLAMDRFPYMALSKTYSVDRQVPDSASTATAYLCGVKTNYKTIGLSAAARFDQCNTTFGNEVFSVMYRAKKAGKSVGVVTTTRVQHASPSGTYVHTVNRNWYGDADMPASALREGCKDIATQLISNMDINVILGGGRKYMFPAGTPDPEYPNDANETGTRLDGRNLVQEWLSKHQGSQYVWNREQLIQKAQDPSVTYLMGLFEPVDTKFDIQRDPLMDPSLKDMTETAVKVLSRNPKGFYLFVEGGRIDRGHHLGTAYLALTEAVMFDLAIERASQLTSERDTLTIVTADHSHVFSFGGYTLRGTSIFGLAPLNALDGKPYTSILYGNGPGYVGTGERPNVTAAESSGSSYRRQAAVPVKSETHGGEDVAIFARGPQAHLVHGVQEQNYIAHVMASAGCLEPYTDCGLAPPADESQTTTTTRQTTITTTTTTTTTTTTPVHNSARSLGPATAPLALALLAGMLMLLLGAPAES
Sequence of Benomyl/methotrexate resistance protein (P28873 whole entry): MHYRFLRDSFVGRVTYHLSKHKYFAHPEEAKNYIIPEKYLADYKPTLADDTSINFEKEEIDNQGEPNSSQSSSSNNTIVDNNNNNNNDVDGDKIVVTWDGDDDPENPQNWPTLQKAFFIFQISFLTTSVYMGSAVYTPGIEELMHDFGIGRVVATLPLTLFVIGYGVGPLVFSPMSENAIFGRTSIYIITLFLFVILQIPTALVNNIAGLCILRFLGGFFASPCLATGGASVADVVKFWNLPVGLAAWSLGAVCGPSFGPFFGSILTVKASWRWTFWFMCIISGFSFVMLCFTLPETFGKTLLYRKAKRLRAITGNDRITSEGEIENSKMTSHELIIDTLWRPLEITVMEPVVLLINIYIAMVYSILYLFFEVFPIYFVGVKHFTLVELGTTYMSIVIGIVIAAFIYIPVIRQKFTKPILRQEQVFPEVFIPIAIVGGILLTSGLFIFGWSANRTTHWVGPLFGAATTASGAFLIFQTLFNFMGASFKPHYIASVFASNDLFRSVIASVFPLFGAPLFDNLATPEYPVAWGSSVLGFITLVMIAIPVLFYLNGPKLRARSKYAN

IC50 [10]: > 100 µM (inactive)
Structure (SMILES): COc1ccc(-c2cc(NCc3ccccn3)n3ncnc3n2)cc1
AC50 [9]: 91.5 µM (active)

IC50 [12]: 2 µM (active)
IC50 [13]: 3.5 µM (active)
IC50 (Caspase-3): 0.97 µM (active)
Structure (SMILES): Oc1ccccc1-c1noc(-c2ccccc2O)n1
IC50 [11]: 3.6 µM (active)

IC50 [14]: > 20 µM (inactive)
IC50 [15]: > 20 µM (inactive)
Structure (SMILES): N#CC(C#N)c1cnn(Cc2cccc3ccccc23)c(=O)c1Cl

IC50 [14]: 2.17 µM (active)
IC50 [15]: 2.17 µM (active)
Structure (SMILES): CCC(C#N)c1c(Cl)cnn(Cc2cccc3ccccc23)c1=O (stereo not drawn)

IC50 [16]: 16.2 µM (inactive)
Structure (SMILES): O=C(Nc1ccc2c(c1)OCCO2)C(c1ccccc1F)n1c(=O)c(-c2ccco2)nc2ccccc21 (stereo not drawn)

Second part, the compound before the results:

Structure (SMILES): C[C@@H]1O[C@@H](O[C@H]2[C@H](O)[C@@H](O)[C@H](Oc3c(-c4ccc(O)c(O)c4)oc4cc(O)cc(O)c4c3=O)O[C@@H]2CO)[C@H](O)[C@H](O)[C@H]1O
AC50 [1]: 4.28 µM (active)
IC50 [2]: 5.66 µM (active)
AC50 [3]: 11.4 µM (active)
IC50 [4]: 10.8 µM (active)
EC50 [5]: 22 µM (active)

Structure (SMILES): c1ccc(-c2cn3c([n+]2-c2ccccc2)SCC3)cc1
IC50 (Protein Wnt-3a): 37.6 µM (inactive)
EC50 [6]: 1.92 µM (active)
EC50 [7]: > 60 µM (not active)

Structure (SMILES): COc1ccccc1-c1nc(C(N)=O)c2[nH]c(=O)n(-c3cccc(C)c3)c2n1
EC50 [8]: 17.2 µM (active)

Structure (SMILES): CCOC(=O)c1ccc(-c2ccc(/C=C(\C#N)C(=O)NCc3cccs3)o2)cc1
EC50 (Melanocortin receptor 4): > 89.2 µM (inactive)

Structure (SMILES): CCOC(=O)c1c(-c2ccc(-c3ccccc3)cc2)csc1NC(=O)c1ccc(C)cc1
IC50 [11]: > 99 µM (inactive)
IC50 [12]: > 99 µM (inactive)
IC50 [13]: > 99 µM (inactive)
IC50 (Caspase-3): > 99 µM (inactive)

Structure (SMILES): CCCCc1[nH]nc2c1/C(=N/OCC)CC(C)(C)C2
EC50 [17]: > 195 µM (not active)
IC50 [18]: 155 µM (inactive)

Structure (SMILES): C[C@@H]1O[C@@H](Oc2c(-c3ccc(O)c(O)c3)oc3cc(O)cc(O)c3c2=O)[C@H](O)[C@H](O)[C@H]1O [QUERCITRIN]
AC50 [1]: 2.48 µM (active)
